Measured values taken from patent publication US7582618B2 (priority 2002, dated 2009).
Converted amounts (≈) assume the structure as drawn. “And” between values parts separate entries of the source, which are not always exact repeats. Equal values may be shown once. “Also recorded” adds a separate entry of the source. Read-outs that look alike come from different tables or passages of the source.

Tests used:
[1] = system: REO-1; test: Antiviral test (Tables 8b, 8c); format: cell-based, double-stranded RNA viruses
[2] = system: BVDV NADL cp in MDBK cells; test: Yield reduction assay; format: cell-based, bovine viral diarrhea virus
[3] = system: BVDV New York-1 ncp in MDBK cells; test: Yield reduction assay; format: cell-based, bovine viral diarrhea virus
[4] = Cellular DNA or RNA synthesis ([3H]-thymidine / [3H]-uridine incorporation); settings: human, HepG2 cells
[5] = system: Huh7 cells; test: Mitochondria toxicity assay, lactic acid production; settings: 10 μM, 4 days
[6] = system: MCMV (MEF); test: organism not typed; format: cell-based
[7] = Cytotoxicity assay; settings: human
[8] = system: Sb-1; test: microbe, parasite or virus in culture; format: cell-based, poliovirus Sabin type-1; settings: Enterovirus C
[9] = system: BVDV I-N-dlns ncp in MDBK cells; test: microbe, parasite or virus in culture; format: cell-based; settings: Bovine viral diarrhea virus isolates and strains, read-out: Antiviral Efficacy EC90
[10] = Cytotoxicity (cell proliferation) assay; settings: human, Huh7 hepatoma cells
[11] = Cytotoxicity (cell proliferation) assay; settings: hamster, BHK-21 kidney cells
[12] = system: CVB-3; test: microbe, parasite or virus in culture; format: cell-based, Coxsackievirus B-3; settings: Coxsackievirus, read-out: EC50 CVB-3
[13] = Cytotoxicity on uninfected cells in parallel to the CPA; settings: bovine, uninfected MDBK kidney cells
[14] = system: Yellow Fever virus; test: microbe, parasite or virus in culture; format: cell-based; settings: read-out: composite EC50 range, Yellow Fever virus
[15] = system: HepG2 cells; test: Mitochondrial DNA content (mtDNA/nuclear DNA); format: cell-based, human; settings: 10 μM
Experimental: To assess the potential of mCyd to produce mitochondrial toxicity, several in vitro studies were conducted using the human hepatoma cell lines HepG2 or Huh7.
• a. HepG2 or huh7 cells were treated with compounds for 4 days, data represent at least three independent experiments • b. HepG2 cells were treated with compounds for 6 and 14 days, data represents at least three independent experiments • c. HepG2 cells were treated with compounds for 14 days • d. 17% cell (11 of 64) contained 1 or 2 enlarged mitochondria out of 25 in two independent experiments nd, not determined

[16] = system: YFV (Vero); test: microbe, parasite or virus in culture; format: cell-based; settings: Yellow fever virus
[17] = system: HepG2 cells; test: Mitochondria toxicity assay, lactic acid production
[18] = system: EBV (Daudi); test: microbe, parasite or virus in culture; format: cell-based; settings: human gammaherpesvirus 4, Daudi
[19] = system: Parainfluenzatype 3 (MA-104); test: organism not typed; format: cell-based; settings: MA104
[20] = Human bone marrow clonogenic assay
[21] = system: BVDV (strain NADL) in MDBK cells; test: BVDV cell protection assay (CPA); format: cell-based; settings: Bovine viral diarrhea virus isolates and strains
[22] = system: CVB-2; test: Antiviral test (Tables 8b, 8c); format: cell-based, Coxsackievirus B-2; settings: Coxsackievirus
[23] = Cytotoxicity assay; settings: mouse
[24] = in vitro; settings: rhesus monkey
[25] = system: BVDV (strain I-N-dIns), noncytopathic; format: cell-based, bovine viral diarrhea virus
[26] = system: HepG2 cells; test: Transmission electron microscopy of mitochondrial ultrastructure; settings: 10 μM, 14 days
[27] = system: Punta Toro A (LLC-MK2); test: organism not typed; format: cell-based
[28] = Cytotoxicity (Table 10); settings: human, KB cells

Molecule `CC1(O)C(O)C(CO)OC1n1ccc(N)nc1=O` (stereo not shown) [mCyd, 4-Amino-1-(3,4-dihydroxy-5-hydroxymethyl-3-methyl-tetrahydro-furan-2-yl)-1H-pyrimidine-2-one] has an EC50 [1] of 13 µM, an EC50 ([2]; Bovine viral diarrhea virus isolates and strains, yield reduction, BVDV NADL cp, MDBK) of 2.77 ± 1.16 µM and an EC90 ([2]; Bovine viral diarrhea virus isolates and strains, yield reduction, BVDV NADL cp, MDBK, read-out: Antiviral Efficacy EC90) of 4.8 ± 1.55 µM. The “suppression of de novo BVDV production” value ([2]; yield reduction assay, circa 20 μM) was “up to 6 log10”, the “Antiviral Efficacy EC4 log” value ([2]; yield reduction, BVDV NADL cp, MDBK) was 13.9 ± 3.07 μM and the “Antiviral Efficacy EC4 log” value [3] was 6.03 ± 1.41 μM. It also gave an EC50 ([3]; Bovine viral diarrhea virus isolates and strains) of 0.3 ± 0.07 µM, an EC90 ([3]; Bovine viral diarrhea virus isolates and strains, read-out: Antiviral Efficacy EC90) of 0.87 ± 0.18 µM and a CC50 ([4]; probe [3H]-thymidine, CC50 DNA ([3H]Thymidine), 50% reduction of thymidine incorporation into cellular DNA) of 112 µM. For the same molecule, the CC50 ([4]; probe [3H]-uridine, CC50 RNA ([3H]Uridine), 50% reduction of uridine incorporation into cellular RNA) was 186 µM, the “L-Lactate (% of Control), Huh7 Cells” value [5] was 98.0 ± 12.3 % of Control and the EC50 [6] was > 0.8 µM. The CC50 ([7]; CC50, HFF, HCMV row) was 67 to 73 µg/mL, the CC50 ([7]; CC50, HFF, HSV-1 row) was > 100 µg/mL and the CC50 ([7]; CC50, HFF, HSV-2 row) was > 100 µg/mL. The CC50 ([7]; CC50, HFF, VZV row) was 67.8 µg/mL, the CC50 ([7]; CC50, rapidly proliferating HFF) was 16.9 µM and the EC50 ([8]; read-out: EC50 Sb-1) was 6 µM. The EC50 ([8]; read-out: Sb-1 (Table 8b)) was 11.5 µM, the EC90 [9] was 1.49 µM and the CC50 at 4 days [10] was > 250 µM. It also gave a CC50 at 4 days [11] of 132 µM, an EC50 [12] of 9 µM and a CC50 at 4 days [13] of 38 ± 9 µM. The EC50 [14] was 9 to 80 µM, the “mtDNA/nuclear DNA (% of Control), 6 day Treatment” value [15] was 117.3 ± 17.5 % of Control and the “mtDNA/nuclear DNA (% of Control), 14 day Treatment” value [15] was 99.7 ± 23.9 % of Control. For the same molecule, the EC50 [16] was 9 to 30 µM, the “L-Lactate (% of Control), HepG2 Cells” value ([17]; 50 μM, 4 days) was 138.0 ± 8.9 % of Control and the “increase in lactic acid production” value ([17]; HepG2, 50 μM) was 38%. The EC50 [18] was 25.5 µg/mL (≈ 99.1 µM), the EC50 [19] was > 200 µM and the CC50 [20] was 14.1 ± 4.5 µM. For the same molecule, the EC50 ([21]; 96 h, BVDV NADL cp, de novo infection, 4 days) was 0.67 ± 0.22 µM, the EC50 ([21]; BVDV MOI 0.16) was ~2.2 µM and the EC50 ([22]; Table 8c, read-out: EC50 CVB-2) was 11 µM. For the same molecule, the EC50 ([22]; read-out: CVB-2 (Table 8b)) was 12 µM, the CC50 [23] was 2.4 µM and the CC50 [24] was > 200 µM. The “virus detection under prolonged treatment” value ([25]; 8 μM, after two passages, re-emerged by passage 6) was “no longer detectable”, the virus production ([25]; 16 μM, from more than 6 logs of virus per ml, within two cell passages) was “undetectable levels” and the “Electron Microscopy, Lipid Droplet Form.” value [26] was “Negative”. The “Electron Microscopy, Mito. Morphol.” value [26] was “No changes in cell architecture, or in mitochondrial number or morphology; also recorded: Normal^d”, the “cells with 1 to 2 enlarged mitochondria out of an average of 25 per cell” value [26] was 17% and the EC50 [27] was > 200 µM. The CC50 [28] was > 200 µM and 20 µg/mL to 30 µg/mL.
